From patent US20130345420A9, “SELECTIVE INHIBITORS OF EXCITATORY AMINO ACID TRANSPORTER SUBTYPE 1 (EAAT1/GLAST)” (priority 2008, published 2013) come the findings set out here.

As usually defined, the melting point is the temperature, or range, at which the solid turns liquid.

Like-named read-outs stand apart in the source and are kept apart here. Bounds are passed on as bounds.

For data set [1], the target named is T1, human EAAT1 (Homo sapiens, UniProt P43003).
T1 construct: expressed in transfected cells
Put plainly: [3H]-D-Aspartic acid uptake assay, HEK293 cells stably expressing EAAT1. The class given is cell-based. The protocol: (§1) Table 1: Inhibition of [^3H]-D-Asp uptake in HEK293 cells stably expressing human EAAT1, EAAT2 and EAAT3. The IC50 values are given in μM with pIC50±S.E.M. values in brackets (n=3-7).
(§2) The functional properties of the novel compounds of the invention were assessed in a [^3H]-D-Aspartic acid uptake assay using HEK293 cell lines stably expressing the human EAAT subtypes EAAT1, EAAT2 and EAAT3. Furthermore, some of the compounds were assayed at human EAAT1, EAAT2 and EAAT3 and the rat orthologs GLAST, GLT-1 and EAAC-1 in the FLIPR® Membrane Potential (FMP) Blue assay (Molecular Devices, Crawley, UK).
(§3) FIG. I depicts a graph showing the concentration-inhibition curves for 1o at the human EAAT subtype EAAT1 stably expressed in HEK293 cell lines in a [^3H]-D-aspartic acid uptake assay. The cells (grown in wells of 96-well plates) were washed twice with assay buffer, and incubated with buffer supplemented with 30 nM [^3H]-D-aspartic acid in the absence (control) or presence of increasing concentrations of 1o at […] for 7 min. The assay mixtures were then quickly removed from the wells, and the cells were washed with 3 times with ice-cold buffer, scintillation fluid was added to each well, and the plate was counted in a TopCounter.

Data set [2] deals with T2, human EAAT3 (Homo sapiens, UniProt P43005).
T2 construct: expressed in transfected cells
T2 sequence (P43005 1-524): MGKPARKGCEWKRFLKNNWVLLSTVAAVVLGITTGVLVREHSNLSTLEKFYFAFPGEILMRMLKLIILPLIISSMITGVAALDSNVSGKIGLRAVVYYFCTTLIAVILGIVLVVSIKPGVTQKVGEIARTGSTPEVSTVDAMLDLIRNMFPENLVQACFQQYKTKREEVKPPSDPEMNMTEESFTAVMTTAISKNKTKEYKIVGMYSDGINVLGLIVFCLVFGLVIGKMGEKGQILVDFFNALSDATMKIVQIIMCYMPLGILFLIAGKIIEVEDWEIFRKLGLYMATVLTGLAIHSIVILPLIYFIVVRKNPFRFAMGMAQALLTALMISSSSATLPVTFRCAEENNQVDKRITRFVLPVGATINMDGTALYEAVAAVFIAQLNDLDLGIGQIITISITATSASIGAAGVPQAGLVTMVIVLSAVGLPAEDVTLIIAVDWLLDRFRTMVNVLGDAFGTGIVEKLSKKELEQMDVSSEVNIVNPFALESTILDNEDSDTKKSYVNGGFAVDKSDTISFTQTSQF
Briefly: [3H]-D-Aspartic acid uptake assay, HEK293 cells stably expressing EAAT3. Type of data set: cell-based. To be noted: n=3-7, read-out: Inhibition of [3H]-D-Asp uptake, EAAT3, IC50. As for the experimental part: as §1, §2, §3

Data set [3] deals with T3, human EAAT2 (Homo sapiens, UniProt P43004).
T3 construct: expressed in transfected cells
Put plainly: [3H]-D-Aspartic acid uptake assay, HEK293 cells stably expressing EAAT2. Conditions: n=3-7, read-out: Inhibition of [3H]-D-Asp uptake, EAAT2, IC50. Type of data set: cell-based. The protocol:
as §1, §2, §3

The nature of data set [4]: Solubility in solvents. To be noted: aq buffer solutions (pH=7.4), DMSO and CDCl3. The class given is physicochemical.
Where [5] appears, read: HEK293 cells stably expressing human EAAT1, n=3-7, read-out: Inhibition of [3H]-D-Asp uptake, EAAT1, IC50.
The mark [6] stands for this setting: HEK293 cells stably expressing human EAAT1, value in brackets, n=3-7, read-out: Inhibition of [3H]-D-Asp uptake, EAAT1, pIC50±S.E.M. (converted).
Where [7] appears, read: HEK293 cells stably expressing human EAAT1, value in brackets, n=3-7.

T1 sequence (P43003 whole entry): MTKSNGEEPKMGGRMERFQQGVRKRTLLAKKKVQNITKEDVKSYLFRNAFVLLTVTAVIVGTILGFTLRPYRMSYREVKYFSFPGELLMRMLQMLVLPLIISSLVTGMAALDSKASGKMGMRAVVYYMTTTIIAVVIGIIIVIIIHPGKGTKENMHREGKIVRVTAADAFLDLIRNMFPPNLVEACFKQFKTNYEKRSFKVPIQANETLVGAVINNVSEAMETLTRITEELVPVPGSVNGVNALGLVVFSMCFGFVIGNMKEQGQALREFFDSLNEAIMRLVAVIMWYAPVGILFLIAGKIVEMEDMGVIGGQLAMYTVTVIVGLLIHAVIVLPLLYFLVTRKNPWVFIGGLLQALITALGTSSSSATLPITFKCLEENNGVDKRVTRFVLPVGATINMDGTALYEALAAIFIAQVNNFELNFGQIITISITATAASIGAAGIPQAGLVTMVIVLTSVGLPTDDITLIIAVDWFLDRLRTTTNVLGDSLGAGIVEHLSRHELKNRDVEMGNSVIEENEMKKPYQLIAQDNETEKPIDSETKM
T3 sequence (P43004 whole entry): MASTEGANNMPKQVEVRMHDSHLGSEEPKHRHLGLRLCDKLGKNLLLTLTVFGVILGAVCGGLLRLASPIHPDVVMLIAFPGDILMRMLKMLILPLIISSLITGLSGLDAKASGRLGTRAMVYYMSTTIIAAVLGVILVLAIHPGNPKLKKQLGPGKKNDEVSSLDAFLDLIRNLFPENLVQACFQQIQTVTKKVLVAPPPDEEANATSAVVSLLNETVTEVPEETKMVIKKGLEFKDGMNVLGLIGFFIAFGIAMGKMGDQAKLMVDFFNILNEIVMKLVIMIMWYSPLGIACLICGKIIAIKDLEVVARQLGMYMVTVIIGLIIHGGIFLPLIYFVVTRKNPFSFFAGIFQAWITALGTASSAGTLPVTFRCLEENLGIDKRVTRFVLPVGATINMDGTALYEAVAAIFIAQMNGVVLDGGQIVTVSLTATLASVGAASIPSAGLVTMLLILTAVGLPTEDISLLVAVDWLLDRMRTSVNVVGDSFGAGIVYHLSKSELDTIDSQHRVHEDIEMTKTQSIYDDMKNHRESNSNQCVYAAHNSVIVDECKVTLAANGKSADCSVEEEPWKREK

As for `N#CC1=C(N)OC2=C(C(=O)CC(c3ccccc3)C2)C1c1cccnc1` (stereo not shown) [1s], in data set [1] (setting [5]), the IC50 is approximately 30 µM.
For `COc1cccc(C2C(C#N)=C(N)OC3=C2C(=O)CC(c2ccccc2)C3)c1OC` (stereo not shown) [1f], the IC50 in data set [1] (setting [6]) is approximately 50.1 µM.
With `N#CC1=C(N)OC2=C(C(=O)CC(c3ccccc3)C2)C1Cc1ccccc1` (stereo not shown) [1u], in data set [1] (setting [5]), the IC50 is approximately 30 µM.
Take `COc1ccc(C2C(C#N)=C(N)OC3=C2C(=O)CC(c2ccccc2)C3)cc1` (stereo not shown) [1c, 2-Amino-4-(4-methoxyphenyl)-7-(phenyl)-5-oxo-5,6,7,8-tetrahydro-4H-chromene-3-carbonitrile]: the IC50 in data set [1] (setting [5]) worked out at 2.3 µM. For the same molecule, in data set [1] (setting [7]), the “Inhibition of [3H]-D-Asp uptake, EAAT1, pIC50±S.E.M.” value was 5.64 ± 0.05.
`COc1ccc(C2C(C#N)=C(N)OC3=C2C(=O)CC(c2ccc(OC)c(OC)c2)C3)cc1` (stereo not shown) [1n, 2-Amino-4-(4-methoxyphenyl)-7-(3,4-dimethoxyphenyl)-5-oxo-5,6,7,8-tetrahydro-4H-chromene-3-carbonitrile] showed a melting point of 159.9 to 161.4 °C. Further, the IC50 in data set [2] was more than 300 µM. For the same molecule, in data set [1] (setting [5]), the IC50 is 11 µM. For the same molecule, the “Inhibition of [3H]-D-Asp uptake, EAAT1, pIC50±S.E.M.” value in data set [1] (setting [7]) amounted to 4.97 ± 0.05. Further, the IC50 in data set [3] was more than 300 µM.
`COc1ccc(C2C(C#N)=C(N)OC3=C2C(=O)CC(c2ccco2)C3)cc1OC(=O)N1CCOCC1` (stereo not shown) [1q] returned an IC50 in data set [1] of approximately 100 µM.
On to `CC1C(C#N)=C(N)OC2=C1C(=O)CC(c1cccc3ccccc13)C2` (stereo not shown) [1w, 2-Amino-4-methyl-7-(naphthalene-1-yl)-5-oxo-5,6,7,8-tetrahydro-4H-chromene-3-carbo-nitrile], for which the IC50 in data set [2] was more than 300 µM; in data set [1] (setting [5]) it was 0.58 µM; in data set [1] (setting [6]), 0.562 µM; in data set [3], more than 300 µM. In data set [4], the “Solubility in comparison with 1o” value is listed as “significantly more soluble”.
